Source: patent publication US11738053B2, “Methods and compositions for treating chronic granulomatous disease” (THE BOARD OF REGENTS OF THE UNIVERSITY OF TEXAS SYSTEM, priority 2016, dated 2023)

Key:
[1] = without irradiation and chemotherapy; cited from earlier work
[2] = tested on: NADPH oxidase in K562 cells; test: Superoxide generation (Diogenes luminescence) in K562 cells reconstituted with gp91^phox vectors; format: cell-based; conditions: K562 cells stably expressing human p47^phox and p67^phox, transfected 48 h before measurement
Procedure: FIG. 15. The gp91^phox (T196F) mutant is superactive compared with wild-type. A cellular luminescence enhancement system for superoxide detection (Diogenes, National Diagnostics) was used. Human p47^phox and p67^phox stably expressing K562 cells were transfected with either wild-type human gp91^phox vector, gp91^phox (T196F) vector, or empty vector pcDNA 3.1 48 h before measurement. K562 cells constitutively express p22^phox and Rac. The experiment shown is representative of 3 studies.
In a structure/function study of gp91^phox, a super-active variant of gp91^phox (T196F) was generated in which residue 196 is mutated from threonine to phenylalanine (FIG. 15). PMA-stimulated superoxide generation was 7-fold greater when gp91^phox(T196F), versus wild-type gp91^phox, was used to reconstitute the NADPH oxidase in K562 cells. The mutant construct was made by Quik-Change™ site-directed mutagenesis of gp91^phox using sense primer […] (SEQ ID NO:1) and antisense primer […] (SEQ ID NO:2). The construct was sequenced and subcloned into fresh pcDNA3.1 (−) using NheI and XhoI.

Which “effectiveness as conditioning regimen” value [1] does the source give for `c1cc(CN2CCCNCCNCCCNCC2)ccc1CN1CCCNCCNCCCNCC1` [AMD3100] here?
Its value is “not to be sufficiently effective”.

B1: gp91^phox(T196F): super-active variant of gp91^phox in which residue 196 is mutated from threonine to phenylalanine (protein, UniProt P04839 2-570, looked up, variant T196F)
NADPH oxidase 2: GNWAVNEGLSIFVILVWLGLNVFLFVWYYRVYDIPPKFFYTRKLLGSALALARAPAACLNFNCMLILLPVCRNLLSFLRGSSACCSTRVRRQLDRNLTFHKMVAWMIALHSAIHTIAHLFNVEWCVNARVNNSDPYSVALSELGDRQNESYLNFARKRIKNPEGGLYLAVTLLAGITGVVITLCLILIITSSTKFIRRSYFEVFWYTHHLFVIFFIGLAIHGAERIVRGQTAESLAVHNITVCEQKISEWGKIKECPIPQFAGNPPMTWKWIVGPMFLYLCERLVRFWRSQQKVVITKVVTHPFKTIELQMKKKGFKMEVGQYIFVKCPKVSKLEWHPFTLTSAPEEDFFSIHIRIVGDWTEGLFNACGCDKQEFQDAWKLPKIAVDGPFGTASEDVFSYEVVMLVGAGIGVTPFASILKSVWYKYCNNATNLKLKKIYFYWLCRDTHAFEWFADLLQLLESQMQERNNAGFLSYNIYLTGWDESQANHFAVHHDEEKDVITGLKQKTLYGRPNWDNEFKTIASQHPNTRIGVFLCGPEALAETLSKQSISNSESGPRGVHFIFNKENF
For B1, which “PMA-stimulated superoxide generation relative to wild-type gp91^phox” value [2] is on record?
The value was 7 fold.
